# Values joined by “and” are separate entries in the source; they are usually repeats but may differ in a detail not shown here. Equal entries are not always repeated.
# Assays:
# [1] = test system: H460-GFP human tumor cells; test: In vivo anti-metastasis study, surgical orthotopic implantation of H460-GFP tumor fragments on the lung; parameters: species or system NCr nu/nu male mice; details: for Evidence of Metastasis (individual mouse): mice No. 1-10; for # mice with metastases: ten mice per group
# Experimental: A total of 50 NCr nu/nu male mice aged 5-6 weeks were selected for the following in vivo test. H460-GFP human tumor cells were grown subcutaneously in NCr nu/nu male mice after which the resulting tumors were harvested. Subsequent to harvesting, recipient NCr nu/nu mice of this study had tumor fragments transplanted by surgical orthotopic implantation (SOI). Each animal was anesthetized is isofurane and the surgical area was sterilized with iodine and alcohol. A transverse incision approximately 1.5 cm long was made in the left chest wall of the mice using a pair of surgical scissors. An intercostal incision was made between the third and the fourth costa and the left lung was exposed. Two pieces of H460-GFP tumor fragments were transplanted to the surface of the lung with 8-0 surgical nylon suture. […]. The lung was re-inflated by the intrathoracic puncture using 3 cc syringe with 25 G 11⁄2 needle to draw out the remaining air in the chest cavity. The chest wall was closed with 6-0 surgical silk sutures. All procedures of the operation described above were performed with a 7× magnification microscope (Olympus) under HEPA filtered laminar flow hoods. The treated mice were divided into five groups containing ten mice each. Group I (Control) received 100 μL the drug vehicle twice daily for 15 days. Group II received 15 mg/kg of taxol intravenously at days 6, 9, 12, and 15. […] Group IV received 10 mg/kg of taxol intravenously at days 6, 9, 12, and 15 and 15 mg/kg of the Test Compound twice per day from day 3 to day 15. Group V received 15 mg/kg of the Test Compound twice per day from day 3 to day 15. All animals were sacrificed on day 28. Each animal was checked twice a week for primary tumor and metastasis via GFP open imaging of the mediastinal lymph nodes. No metastasis was found on any other organs. Six mice from the control group died before the end of the study, but were evaluated for tumor and/or cellular metastasis.
# B16 melanoma cells = test: In vivo anticancer study, B16 melanoma; parameters: species or system C57BL/6 mice
# Experimental: The effectiveness of the disclosed compounds as a treatment for melanoma was studied. C57BL/6 mice (6-8 weeks-old, female, Taconic Farm) were inoculated with B16 melanoma cells (5×10^4 cells/site, s.c.). […] Tumor volumes were recorded. […] Tumor volumes were recorded.
# Renca renal cancer cells = test: In vivo anticancer study, renal cell carcinoma (Renca); parameters: species or system Balb/c mice; details: FIG. 1 and FIG. 2
# Experimental: The effectiveness of the disclosed compounds as a treatment against renal cell carcinoma was studied. Balb/c mice (6-8 weeks-old, female, Taconic Farm) were inoculated with Renca renal cancer cells (5×10^5 cells/site). […] Tumor volumes were recorded.
# [2] = test system: MiaPaCa-2-RFP tumor fragments; test: In vivo pancreatic cancer study, surgical orthotopic implantation of MiaPaCa-2-RFP tumor fragments; parameters: species or system NCr nu/nu males; details: FIG. 9
# From the text: The effectiveness of the disclosed compounds as a treatment for pancreatic cancer was investigated. 60 NCr nu/nu males, 5-6 weeks old were transplanted by surgical orthotopic implantation (SOI) using MiaPaCa-2-RFP tumor fragments harvested from stock animals. The animals were anesthetized with isoflurane and the surgical area was sterilized using iodine and alcohol. An incision approximately 1.5 cm long was made in the left upper abdomen of the nude mouse using a pair of surgical scissors. […] The abdomen was closed with 6-0 surgical sutures (silk). All procedures of the operation described above were performed with a 7× magnification microscope (Olympus) under HEPA filtered laminar flow hoods. Dosing of the animals began three days following tumor implantation. The high dose of gemcitabine was 150 mg/kg. The low dose of gemcitabine was 100 mg/kg. […] was given at 20 mg/kg. […] The animals were divided into the following groups often animals each as depicted in Table XXII.
SMILES,"Evidence of Metastasis (individual mouse) ([1]; Group V: D91 15 mg/kg twice per day, day 3 to 15, 15 mg/kg)","# mice with metastases ([1]; Group V: D91 15 mg/kg twice per day, day 3 to 15)","B16 melanoma tumor volume (B16 melanoma cells; 40 mg/kg b.i.d. D91 alone versus vehicle control, FIG. 8)","tumor volume (B16 melanoma cells; high dose of IL-2 (300,000 IU/mouse, bid, i.p.) in combination with high dose of D91 (40 mg/kg, bid, s.c.), compared to high dose IL-2 alone, FIG. 3)","tumor volume (B16 melanoma cells; low dose of IL-2 (100,000 IU/mouse, bid, i.p.) in combination with high dose of D91 (40 mg/kg, bid, s.c.) versus control, FIG. 6)","reducing tumor volume, compared with IL-2 (Renca renal cancer cells; D91 40 mg/kg bid s.c. versus IL-2 100,000 IU/mouse bid i.p.)","renal tumor growth (Renca renal cancer cells; D91 40 mg/kg, bid, s.c. alone)","tumor volume (Renca renal cancer cells; combination of D91 (40 mg/kg, bid, s.c.) and IL-2 (100,000 IU/mouse, bid, i.p.))","pancreatic tumor volume ([2]; D91 20 mg/kg s.c. twice daily alone, day 28)","tumor volume ([2]; combination of low dose gemcitabine (100 mg/kg i.p.) and 20 mg/kg D91, compared with either alone)","Evidence of Metastasis (individual mouse) ([1]; Group II: taxol 15 mg/kg i.v. at days 6, 9, 12, 15, GFP open imaging of mediastinal lymph nodes)","# mice with metastases ([1]; Group II: taxol 15 mg/kg i.v. at days 6, 9, 12, 15)"
"COC(=O)N[C@@H](Cc1ccccc1)C(=O)N[C@@H](Cc1ccc(NS(=O)(=O)O)cc1)c1csc(-c2cccs2)n1 [D91, 4-{(S)-2-[(S)-2-(Methoxycarbonylamino)-3-phenylpropanamido]-2-[2-(thiophen-2-yl)thiazol-4-yl]ethyl}phenylsulfamic acid]",Yes (2×) and No (8×),2,effectiveness,significantly reduced tumor volume as compared to high dose of IL-2,significantly reduced tumor volume versus control,as effective as IL-2 in reducing tumor volume,significantly reduced renal tumor growth,further reduced tumor volume,significant reduction in pancreatic tumor volume,greater reduction in tumor volume,–,–
"CC(=O)O[C@H]1C(=O)[C@@]2(C)[C@H]([C@H](OC(=O)c3ccccc3)[C@]3(O)C[C@H](OC(=O)[C@H](O)[C@@H](NC(=O)c4ccccc4)c4ccccc4)C(C)=C1C3(C)C)[C@]1(OC(C)=O)CO[C@@H]1C[C@@H]2O [taxol, reference compound]",–,–,–,–,–,–,–,–,–,–,No (9×) and Yes,1
